# Assay results from patent US20080076824A1, “Compounds That Inhibit Replication Of Human Immunodeficiency Virus” (priority 2004, published 2008).
# Values joined by “and” are separate entries in the source; they are usually repeats but may differ in a detail not shown here. Identical values can stand only once. Counter-ions that a name gives are not always drawn.
# Experiment: Microdose study of 14C-AlphaHGA in healthy volunteers, plasma pharmacokinetics (AMS)
# Type: in vivo, human
# Procedure: In this example, the pharmacokinetics (PK) and oral bioavailability of AlphaHGA in adult healthy volunteers following a single ‘microdose’ in a sequence-randomized, cross-over study design (two periods 7 days apart) was determined. Clinical experiments were conducted with low-level radiolabelled (^14C) AlphaHGA administered intravenously (IV) orally (PO) with serial blood and urine samples were collected for concentration analysis utilizing accelerator mass spectrometry (AMS).
# Accordingly, eight subjects were enrolled into a single dose cross-over study. The subjects were randomly assigned to one of two administration sequences. Subjects that were assigned to sequence 1 received AlphaHGA as an oral preparation first (Period 1) followed by the intravenous (IV) preparation 1 week later (Period 2). Subjects assigned to sequence 2 received AlphaHGA as an intravenous preparation first followed by the oral preparation 1 week later. Four subjects were assigned to sequence 1 and four subjects were assigned to sequence 2.
# For both oral and IV doses subjects were administered 100 nCi (3.7 Kbq) of alphaHGA, which was determined to contain 1.602888×10ˆ6 fmol of ^14C. The specific activity of each dose was 46.619 MBq/mol (or 1.260 mCi/mol). A stock blend of ^14C-labelled alphaHGA was produced prior to the first study period. The actual formulations used for dosing were prepared on the morning prior to each study period. The infusion was a single bolus injection with both the infusion and flush were completed in less than 30 seconds.
# Blood (5 ml) was collected following the administration of AlphaHGA orally or as an IV bolus at the following times: pre-dose (T=0) and 15, 30, 45, 60 minutes, and at 2, 3, 4, 6, 8, 10, 12, 16, 24 hours post-dose. All of the 224 scheduled blood samples were obtained. Blood specimens were drawn by intravenous in-dwelling catheter into 2×10 mL EDTA containing Vacutainer tubes and RBC's separated by centrifugation.
# Plasma specimens (30 μL) were analyzed directly via the combustive procedure without further chemical manipulation. For the purposes of calculating ^14C concentration per volume of plasma, a general carbon content of 45% (dry mass) was applied. The urine was mixed with equal volumes (0.5 mL) of a sucrose carbon diluent solution (200 g/L) and mixed by inversion in a disposable polypropylene centrifuge tube. A 20-μL sample was graphitized for AMS analysis according to standard procedures. The mass fraction of the urine represented in the measured sample was inverted and multipled by the ^14C contents above background derived from the AMS measurement to calculate the ^14C content in the total urine void. A density value of 1 g/mL for urine was assumed to calculate its volume from the recorded masses.
# Pharmacokinetic parameters were estimated by noncompartmental analysis employing the PK software WinNonlin version 4.1 (Pharsight Corporation, Palo Alto, Calif.). Statistical analyses were performed using either WinNonlin 4.1 or SPlus 2000 (Insightful Inc, Seattle, Wash.). All parameter calculations are reported from observed values and not from predicted values. However, observed and predicted values were very close and parameter estimates from both approaches were nearly equal.
# . Values for the following PK parameters were estimated from plasma alphaHGA concentrations:
# Maximum observed concentration (Cmax) and the time to reach Cmax (Tmax), the last quantified concentration (Clast), the time to Clast (Tlast), and time to the first quantified concentration (Tfirst) came from the experimentally observed values.
# Terminal elimination rate constant (λz), was estimated from log-linear regression analysis of the apparent terminal phase of the plasma concentration-time profile. Weighting for the regression was 1/Y^2. The associated plasma half-life (T½) was calculated as T½=ln 2/λz. The point employed for estimating λz, were selected by the WinNonlin default curve stripping algorithm. […]
# [1] = plasma, route iv, individual subjects 1-8, period 1 or 2
# [2] = plasma, route iv, individual subjects 1-8, period 1 or 2, hydrochloride
# [3] = plasma, route po, individual subjects 1-8, period 1 or 2, hydrochloride
structure (smiles),measurement,setting,value
"NC(=O)C(N)O (stereo not drawn) [AlphaHGA, α-Hydroxy-glycinamide hydrochloride]",AUC % Extrap,all subjects,less than 20%
same,terminal elimination half-life in the plasma,following both routes of administration,approximately 10 hours
same,absorption,oral administration,rapidly and completely absorbed after oral administration
same,AUC % Extrap,"plasma, Period 1, Max",17.43%
same,AUCTmax,"plasma, Period 1, Max",0.02396 nM·h
same,AUCinf,"plasma, Period 1, Max",0.43166 nM·h
same,AUClast,"plasma, Period 1, Max",0.39184 nM·h
same,Az,"plasma, Period 1, Max",0.084 h⁻¹
same,Clast,"plasma, Period 1, Max",0.00462 nM
same,Cmax,"plasma, Period 1, Max",0.0668 nM
same,T ½,"plasma, Period 1, Max",10.32 h
same,Tmax,"plasma, Period 1, Max",1.00 h
same,AUC % Extrap,"plasma, Period 1, Mean",13.16%
same,AUCTmax,"plasma, Period 1, Mean",0.01354 nM·h
same,AUCinf,"plasma, Period 1, Mean",0.35555 nM·h
same,AUClast,"plasma, Period 1, Mean",0.30901 nM·h
same,Az,"plasma, Period 1, Mean",0.074 h⁻¹
same,Clast,"plasma, Period 1, Mean",0.0034 nM
same,Cmax,"plasma, Period 1, Mean",0.0477 nM
same,T ½,"plasma, Period 1, Mean",9.45 h
same,Tmax,"plasma, Period 1, Mean",0.50 h
same,AUC % Extrap,"plasma, Period 1, Min",9.23%
same,AUCTmax,"plasma, Period 1, Min",0.00422 nM·h
same,AUCinf,"plasma, Period 1, Min",0.27962 nM·h
same,AUClast,"plasma, Period 1, Min",0.24083 nM·h
same,Az,"plasma, Period 1, Min",0.067 h⁻¹
same,Clast,"plasma, Period 1, Min",0.00267 nM
same,Cmax,"plasma, Period 1, Min",0.0337 nM
same,T ½,"plasma, Period 1, Min",8.26 h
same,Tmax,"plasma, Period 1, Min",0.25 h
same,AUC % Extrap,"plasma, Period 2, Max",19.51%
same,AUCTmax,"plasma, Period 2, Max",0.04903 nM·h
same,AUCinf,"plasma, Period 2, Max",0.4907 nM·h
same,AUClast,"plasma, Period 2, Max",0.46442 nM·h
same,Az,"plasma, Period 2, Max",0.118 h⁻¹
same,Clast,"plasma, Period 2, Max",0.00459 nM
same,Cmax,"plasma, Period 2, Max",0.076 nM
same,T ½,"plasma, Period 2, Max",12.80 h
same,Tmax,"plasma, Period 2, Max",2.00 h
same,AUC % Extrap,"plasma, Period 2, Mean",13.94%
same,AUCTmax,"plasma, Period 2, Mean",0.01698 nM·h
same,AUCinf,"plasma, Period 2, Mean",0.3847 nM·h
same,AUClast,"plasma, Period 2, Mean",0.33218 nM·h
same,Az,"plasma, Period 2, Mean",0.073 h⁻¹
same,Clast,"plasma, Period 2, Mean",0.00356 nM
same,Cmax,"plasma, Period 2, Mean",0.0574 nM
same,T ½,"plasma, Period 2, Mean",10.06 h
same,Tmax,"plasma, Period 2, Mean",0.59 h
same,AUC % Extrap,"plasma, Period 2, Min",5.36%
same,AUCTmax,"plasma, Period 2, Min",0.00615 nM·h
same,AUCinf,"plasma, Period 2, Min",0.32388 nM·h
same,AUClast,"plasma, Period 2, Min",0.27076 nM·h
same,Az,"plasma, Period 2, Min",0.054 h⁻¹
same,Clast,"plasma, Period 2, Min",0.00292 nM
same,Cmax,"plasma, Period 2, Min",0.0392 nM
same,T ½,"plasma, Period 2, Min",5.88 h
same,Tmax,"plasma, Period 2, Min",0.25 h
same,AUC % Extrap,"plasma, Route iv, Max",19.51%
same,AUCTmax,"plasma, Route iv, Max",0.02396 nM·h
same,AUCinf,"plasma, Route iv, Max",0.43166 nM·h
same,AUClast,"plasma, Route iv, Max",0.39184 nM·h
same,Az,"plasma, Route iv, Max",0.084 h⁻¹
same,Clast,"plasma, Route iv, Max",0.00462 nM
same,Cmax,"plasma, Route iv, Max",0.0722 nM
same,T ½,"plasma, Route iv, Max",12.80 h
same,Tmax,"plasma, Route iv, Max",0.50 h
same,AUC % Extrap,"plasma, Route iv, Mean",14.04%
same,AUCTmax,"plasma, Route iv, Mean",0.00876 nM·h
same,AUCinf,"plasma, Route iv, Mean",0.36141 nM·h
same,AUClast,"plasma, Route iv, Mean",0.31056 nM·h
same,Az,"plasma, Route iv, Mean",0.070 h⁻¹
same,Clast,"plasma, Route iv, Mean",0.00343 nM
same,Cmax,"plasma, Route iv, Mean",0.0544 nM
same,T ½,"plasma, Route iv, Mean",10.11 h
same,Tmax,"plasma, Route iv, Mean",0.28 h
same,AUC % Extrap,"plasma, Route iv, Min",9.23%
same,AUCTmax,"plasma, Route iv, Min",0.00422 nM·h
same,AUCinf,"plasma, Route iv, Min",0.27962 nM·h
same,AUClast,"plasma, Route iv, Min",0.24083 nM·h
same,Az,"plasma, Route iv, Min",0.054 h⁻¹
same,Clast,"plasma, Route iv, Min",0.00267 nM
same,Cmax,"plasma, Route iv, Min",0.0337 nM
same,T ½,"plasma, Route iv, Min",8.26 h
same,Tmax,"plasma, Route iv, Min",0.25 h
same,AUC % Extrap,"plasma, Route po, Max",16.54%
same,AUCTmax,"plasma, Route po, Max",0.04903 nM·h
same,AUCinf,"plasma, Route po, Max",0.4907 nM·h
same,AUClast,"plasma, Route po, Max",0.46442 nM·h
same,Az,"plasma, Route po, Max",0.118 h⁻¹
same,Clast,"plasma, Route po, Max",0.00459 nM
same,Cmax,"plasma, Route po, Max",0.076 nM
same,T ½,"plasma, Route po, Max",11.29 h
same,Tmax,"plasma, Route po, Max",2.00 h
same,AUC % Extrap,"plasma, Route po, Mean",13.07%
same,AUCTmax,"plasma, Route po, Mean",0.02176 nM·h
same,AUCinf,"plasma, Route po, Mean",0.37884 nM·h
same,AUClast,"plasma, Route po, Mean",0.33063 nM·h
same,Az,"plasma, Route po, Mean",0.076 h⁻¹
same,Clast,"plasma, Route po, Mean",0.00353 nM
same,Cmax,"plasma, Route po, Mean",0.0507 nM
same,T ½,"plasma, Route po, Mean",9.40 h
same,Tmax,"plasma, Route po, Mean",0.81 h
same,AUC % Extrap,"plasma, Route po, Min",5.36%
same,AUCTmax,"plasma, Route po, Min",0.01199 nM·h
same,AUCinf,"plasma, Route po, Min",0.31704 nM·h
same,AUClast,"plasma, Route po, Min",0.26699 nM·h
same,Az,"plasma, Route po, Min",0.061 h⁻¹
same,Clast,"plasma, Route po, Min",0.00286 nM
same,Cmax,"plasma, Route po, Min",0.0357 nM
same,T ½,"plasma, Route po, Min",5.88 h
same,Tmax,"plasma, Route po, Min",0.50 h
same,Tfirst,[1],0.25 h
same,Tlast,[1],24 h
same,AUCTmax,[2],0.00422 nM·h and 0.00683 nM·h and 0.00902 nM·h and 0.00647 nM·h and 0.02396 nM·h and 0.00615 nM·h and 0.00528 nM·h and 0.00813 nM·h
same,AUCinf,[2],0.27962 nM·h and 0.32862 nM·h and 0.36703 nM·h and 0.32974 nM·h and 0.43166 nM·h and 0.35514 nM·h and 0.39463 nM·h and 0.40482 nM·h
same,AUClast,[2],0.24083 nM·h and 0.29153 nM·h and 0.32782 nM·h and 0.29111 nM·h and 0.39184 nM·h and 0.28587 nM·h and 0.32585 nM·h and 0.32966 nM·h
same,Clast,[2],0.00267 nM and 0.00304 nM and 0.00292 nM and 0.00299 nM and 0.00334 nM and 0.00375 nM and 0.00462 nM and 0.0041 nM
same,Cmax,[2],0.0337 nM and 0.0546 nM and 0.0722 nM and 0.0517 nM and 0.0668 nM and 0.0492 nM and 0.0422 nM and 0.065 nM
same,T1/2,[2],10.07 h and 8.46 h and 9.31 h and 8.96 h and 8.26 h and 12.80 h and 10.32 h and 12.71 h
same,Tmax,[2],0.25 h and 0.5 h
same,λz,[2],0.069 h⁻¹ and 0.082 h⁻¹ and 0.075 h⁻¹ and 0.077 h⁻¹ and 0.084 h⁻¹ and 0.054 h⁻¹ and 0.067 h⁻¹ and 0.055 h⁻¹
same,Tlast,"plasma, route po, individual subjects 1-8, period 1 or 2",24 h
same,AUCTmax,[3],0.0122 nM·h and 0.03149 nM·h and 0.01712 nM·h and 0.04903 nM·h and 0.02379 nM·h and 0.01199 nM·h and 0.01353 nM·h and 0.01489 nM·h
same,AUCinf,[3],0.32094 nM·h and 0.4907 nM·h and 0.31704 nM·h and 0.41499 nM·h and 0.40394 nM·h and 0.32388 nM·h and 0.3913 nM·h and 0.36795 nM·h
same,AUClast,[3],0.28221 nM·h and 0.46442 nM·h and 0.26699 nM·h and 0.34636 nM·h and 0.34963 nM·h and 0.27076 nM·h and 0.34145 nM·h and 0.32318 nM·h
same,Clast,[3],0.00286 nM and 0.0031 nM and 0.00341 nM and 0.00459 nM and 0.00395 nM and 0.00326 nM and 0.00376 nM and 0.0033 nM
same,Cmax,[3],0.0406 nM and 0.076 nM and 0.0357 nM and 0.0392 nM and 0.0494 nM and 0.0479 nM and 0.0581 nM and 0.0584 nM
same,T1/2,[3],9.39 h and 5.88 h and 10.18 h and 10.36 h and 9.53 h and 11.29 h and 9.19 h and 9.40 h
same,Tfirst,[3],0.25 hr (7×) and 0.5 hr
same,Tmax,[3],0.5 h and 0.75 h and 1 h and 2 h
same,λz,[3],0.074 hr^−1 (2×) and 0.118 hr^−1 and 0.068 hr^−1 and 0.067 hr^−1 and 0.073 hr^−1 and 0.061 hr^−1 and 0.075 hr^−1
